The values that follow come from paper PMC11238198, “Rejuvenation of Meropenem by Conjugation with Tilapia Piscidin-4 Peptide Targeting NDM-1 Escherichia coli” (ACS Omega, 2024).

One data set has as its system RBCs. Format: cell-based, Human. On the procedure:
Human RBCs were used to examine the hemolytic profiles of the peptides and conjugates. The RBCs were washed three times with PBS and centrifuged at 1000g. Then, 50 μL of a 2% RBC suspension was added to 50 μL of peptide/conjugate solution at different concentrations. The mixture was incubated at 37 °C for 1 h. The incubated mixture was centrifuged, and hemolysis was assessed by measuring the absorbance of the supernatant at 540 nm.

Data set [1] concerns NDM E. coli BAA 2452. In words: microbe, parasite or virus in culture. It is filed as cell-based, Escherichia coli. The note with it: for MIC: NDM-1-positive MDR strain, Mueller Hinton broth, 37 °C, 16–20 h, three independent replicates, each in triplicate. On the procedure:
(§1) E. coli 8–8, A. baumannii 2982, and S. aureus 13–1 were procured from the Bioresource Collection and Research Center (BCRC), Taiwan. NDM-1-positive E. coli BAA 2452 was procured from ATCC. All strains were cultured in Mueller Hinton broth (MHB). The concentration of bacteria was identified by the absorbance at OD600. The colony forming units (CFU) corresponding to different OD600 values were identified by plating on the Mueller Hinton agar (MHA) plate.
(§2) Antibacterial analysis was performed according to a standard protocol.[32] Overnight cultures of test bacteria were prepared and freshly subcultured. Briefly, 50 μL of 1 × 10^6 CFU/mL bacterial cells was treated with 50 μL of peptide or conjugate at different concentrations in a 96-well plate. The plates were incubated at 37 °C for 16–20 h. The lowest concentration of peptide/conjugate showing no growth was considered the minimum inhibitory concentration (MIC). To identify the MIC (MBC), 5 μL of incubated suspensions from growth-free wells was plated onto MHA and incubated overnight at 37 °C. The lowest concentration of peptide/conjugate showing no growth on the MHA plate was considered to be the MBC. The experiments were performed in three independent replicates, each in triplicate.

A further data set concerns S. aureus 13–1. In words: microbe, parasite or virus in culture. Format: cell-based. The following applies: Mueller Hinton broth, 50 μL of 1 × 10^6 CFU/mL + 50 μL sample, 37 °C, 16–20 h, three independent replicates, each in triplicate. On the procedure: as §1, §2
Data set [2] deals with NDM E. coli BAA 2452. The data set can be described thus: microbe, parasite or virus in culture. It is filed as cell-based. The following applies: Escherichia coli, BAA2452; 5 μL from growth-free wells plated onto MHA, overnight at 37 °C; three independent replicates, each in triplicate. The procedure:
as §1, §2

A further data set concerns A. baumannii 2982. In words: microbe, parasite or virus in culture. It is filed as cell-based, Acinetobacter baumannii. The note with it: Mueller Hinton broth, 50 μL of 1 × 10^6 CFU/mL + 50 μL sample, 37 °C, 16–20 h, three independent replicates, each in triplicate. On the procedure:
as §1, §2

The subject of a further data set is CCD966-SK cells. It is filed as cell-based, human. The following applies: 16 µM. On the procedure:
RAW 264.7 murine macrophage cells, CCD966-SK human fibroblast cells, and HaCaT human keratinocytes were procured from BCRC, Taiwan. RAW264.7 and HaCaT cells were cultivated in DMEM supplemented with 10% FBS, streptomycin (100 μg/mL), and penicillin (100 U/mL) at 37 °C and 5% CO2. CCD966-SK were cultivated in MEM with 0.1 mM nonessential amino acids with 10% FBS, streptomycin (100 μg/mL), and penicillin (100 U/mL) at 37 °C and 5% CO2. In vitro cytotoxicity of the TP4-Meropenem conjugates was evaluated with an alamarBlue assay. Briefly, 5 × 10^4 RAW264.7 cells/well or 5 × 10^3 CCD966-SK or 1 × 10^4 HaCaT cells/well were seeded in 96-well plates for 24 h and then treated with different concentrations of peptide/conjugate. Controls included 0.1% Triton-X-treated cells and cells in a culture medium. After 24 h of treatment, the cells were washed and incubated with 90 μL of DMEM and 10 μL of alamarBlue reagent for 2 h. The absorbances at 570 and 600 nm were measured using a Spectra Max i3 (Molecular Devices, CA). Cell viability was calculated using the formula as described in the protocol. The LDH assay was carried out using the cytotoxicity detection kit PLUS according to a previously described protocol.[33]

For a further data set, the system named is E. coli 8–8. It is filed as cell-based, Escherichia coli. The following applies: Mueller Hinton broth, 50 μL of 1 × 10^6 CFU/mL + 50 μL sample, 37 °C, 16–20 h; three independent replicates, each in triplicate. On the procedure:
as §1, §2

No end group written: not given here. Some results are limits rather than exact numbers.

Take “FIHHIIGGLFSAGKAIHRLIRRRRR [L-TP4, Tilapia piscidin-4] [listing 1 of 2 here]”: the “hemolysis (% of the total cells) at 4 μM” value in the data set on RBCs (4 µM) turned out to be 44.4 ± 4.3%. Besides, the “hemolysis (% of the total cells) at 8 μM” value with RBCs (8 µM) stood at 84.1 ± 6.2%.
For “FIHHIIGGLFSAGKAIHRLIRRRRR [L-TP4, Tilapia piscidin-4] [listing 2 of 2 here]”, the “MIC NDM E. coli BAA 2452” value with NDM E. coli BAA 2452 [1] (BAA 2452) lay within 4 to 8 µM.
With `C[C@@H](O)[C@H]1C(=O)N2C(C(=O)O)=C(S[C@@H]3CN[C@H](C(=O)N(C)C)C3)[C@H](C)[C@H]12` [Meropenem], the MIC with S. aureus 13–1 (Staphylococcus aureus, read-out: minimum inhibitory concentration (MIC) S. aureus 13–1) was 0.25 µM; against NDM E. coli BAA 2452 [1] (Escherichia coli, BAA2452), over 64 µM; in the data set on NDM E. coli BAA 2452 [1] it was over 64 µM; in the data set on A. baumannii 2982 (Acinetobacter baumannii, 2982, read-out: minimum inhibitory concentration (MIC) A. baumannii 2982), over 32 µM. Also, in the data set with NDM E. coli BAA 2452 [2], the MBC was over 64 µM.
Consider “FIHHIIGGLFSAGKAIHRLIRRRRR [TP4, Tilapia piscidin-4]”, for which, in the data set on CCD966-SK cells, the “cell viability, CCD966-SK” value is given as 23.9 ± 1.2%.
In the case of D-Tilapia piscidin 4 [D-TP4], the “minimum inhibitory concentration (MIC) S. aureus 13–1” value in the data set with S. aureus 13–1 is 2 to 4 µM. In addition, the “minimum inhibitory concentration (MIC) E. coli 8–8” value in the data set on E. coli 8–8 lay in the range of 2 to 4 µM. The “minimum inhibitory concentration (MIC) A. baumannii 2982” value in the data set on A. baumannii 2982 lay in the range of 2 to 4 µM.
